Measurements reported in article PMC2231820 (The Journal of General Physiology, 2000).
Substitutions are numbered along the chain they refer to. Where two headings read alike, the source gives them in different places.

Legend:
Format in all cases: cell-based
[1] = biological target: T1, bovine rod (Brod) CNG channel, α homomultimer (Bos taurus, UniProt Q00194); conditions: for Hill coefficient n of cGMP activation: six patches
T1 sequence (Q00194 1-690): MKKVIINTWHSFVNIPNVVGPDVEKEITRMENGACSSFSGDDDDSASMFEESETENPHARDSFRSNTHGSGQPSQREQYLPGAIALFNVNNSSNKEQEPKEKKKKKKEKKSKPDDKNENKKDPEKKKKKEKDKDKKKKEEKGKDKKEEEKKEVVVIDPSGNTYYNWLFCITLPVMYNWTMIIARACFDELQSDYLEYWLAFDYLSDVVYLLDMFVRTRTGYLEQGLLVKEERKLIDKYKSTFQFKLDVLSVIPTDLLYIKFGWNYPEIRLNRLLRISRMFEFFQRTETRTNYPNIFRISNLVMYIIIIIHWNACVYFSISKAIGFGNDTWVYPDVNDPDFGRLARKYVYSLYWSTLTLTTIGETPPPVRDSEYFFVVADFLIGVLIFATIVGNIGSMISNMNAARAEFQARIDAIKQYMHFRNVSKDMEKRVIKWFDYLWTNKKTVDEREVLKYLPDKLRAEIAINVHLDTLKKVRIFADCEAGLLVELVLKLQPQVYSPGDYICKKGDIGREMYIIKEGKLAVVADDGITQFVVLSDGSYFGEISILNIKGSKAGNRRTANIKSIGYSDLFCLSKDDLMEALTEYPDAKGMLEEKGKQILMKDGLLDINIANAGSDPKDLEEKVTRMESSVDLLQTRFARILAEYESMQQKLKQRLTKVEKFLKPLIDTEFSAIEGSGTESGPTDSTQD

[2] = biological target: T2, Molf G204E CNG channel (Mus musculus, UniProt Q62398, G204E/M2V)
T2 sequence (Q62398 1-664 M2V/G204E): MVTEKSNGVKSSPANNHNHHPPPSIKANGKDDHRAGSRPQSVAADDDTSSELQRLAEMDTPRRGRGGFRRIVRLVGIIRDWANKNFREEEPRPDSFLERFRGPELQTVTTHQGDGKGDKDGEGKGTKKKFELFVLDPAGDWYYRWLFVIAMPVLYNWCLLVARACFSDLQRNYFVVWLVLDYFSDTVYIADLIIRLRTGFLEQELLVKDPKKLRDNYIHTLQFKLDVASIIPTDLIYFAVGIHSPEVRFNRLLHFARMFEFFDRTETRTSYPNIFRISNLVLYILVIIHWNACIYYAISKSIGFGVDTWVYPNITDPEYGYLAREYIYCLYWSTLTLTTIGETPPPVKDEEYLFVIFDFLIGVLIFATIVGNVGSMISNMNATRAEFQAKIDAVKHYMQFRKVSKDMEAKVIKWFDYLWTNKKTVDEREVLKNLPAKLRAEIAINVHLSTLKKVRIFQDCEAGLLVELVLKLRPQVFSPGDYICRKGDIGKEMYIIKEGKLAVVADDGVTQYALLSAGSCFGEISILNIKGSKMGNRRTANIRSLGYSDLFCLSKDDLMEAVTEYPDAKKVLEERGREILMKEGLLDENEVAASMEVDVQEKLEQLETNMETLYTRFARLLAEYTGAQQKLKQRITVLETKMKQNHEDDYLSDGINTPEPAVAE

[3] = biological target: T3, Rolf G204E CNG channel (Rattus norvegicus, UniProt Q00195, G204E); conditions: for Hill coefficient n of cGMP activation: 2 patches
T3 sequence (Q00195 1-664 G204E): T2 sequence (Q62398 1-664 M2V/G204E) with V2M, S50P, R69Q, I77V, G115D, D118G, A297V, E611D, A661T, V662A

[4] = biological target: T4, Rolf G204W CNG channel (Rattus norvegicus, UniProt Q00195, G204W)
T4 sequence (Q00195 1-664 G204W): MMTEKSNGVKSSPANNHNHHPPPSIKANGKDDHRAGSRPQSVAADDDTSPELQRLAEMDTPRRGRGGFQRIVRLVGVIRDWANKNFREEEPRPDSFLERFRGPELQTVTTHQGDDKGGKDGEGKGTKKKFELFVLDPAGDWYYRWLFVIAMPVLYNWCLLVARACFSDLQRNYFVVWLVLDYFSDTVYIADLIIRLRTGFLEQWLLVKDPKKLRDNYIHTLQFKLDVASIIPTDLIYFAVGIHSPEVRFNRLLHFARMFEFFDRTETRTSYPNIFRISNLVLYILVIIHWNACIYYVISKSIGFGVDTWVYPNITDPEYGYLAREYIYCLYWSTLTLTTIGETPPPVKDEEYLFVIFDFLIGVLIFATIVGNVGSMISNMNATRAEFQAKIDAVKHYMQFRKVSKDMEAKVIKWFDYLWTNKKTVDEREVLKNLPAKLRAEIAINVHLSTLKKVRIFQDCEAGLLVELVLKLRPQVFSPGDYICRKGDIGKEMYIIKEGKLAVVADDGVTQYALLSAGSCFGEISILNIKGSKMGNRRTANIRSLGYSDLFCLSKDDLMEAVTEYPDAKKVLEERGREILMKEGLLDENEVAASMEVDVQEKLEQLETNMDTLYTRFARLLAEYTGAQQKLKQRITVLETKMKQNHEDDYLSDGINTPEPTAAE

[5] = read-out: Percent inhibition by tetracaine

diacylglycerol [DAG]
decrease of maximal current by DAG ([1]; Brod, 1.5 μM DAG, saturating 2 mM cGMP): > 80%
DAG concentration that fully suppresses cGMP-activated currents ([1]; Brod, saturating cGMP): ~3 µM
decrease of maximal current by DAG ([2]; Molf G204E, 1.5 μM DAG, saturating 100 μM cGMP): > 80%
DAG maximal percent inhibition (INmax) ([2]; Molf G204E, saturating 100 μM cGMP): 100%
DAG concentration that fully suppresses cGMP-activated currents ([2]; Molf G204E, saturating cGMP): ~3 µM
DAG maximal percent inhibition (INmax) ([3]; Rolf G204E, saturating 100 μM cGMP): 100%
DAG concentration that fully suppresses cGMP-activated currents ([3]; Rolf G204E, saturating cGMP): ~3 µM
DAG maximal percent inhibition (INmax) ([4]; Rolf G204W, 2 mM cGMP): 100%
Hill coefficient n of DAG inhibition ([4]; Rolf G204W, 2 mM cGMP): 3.2

CCCCNc1ccc(C(=O)OCCN(C)C)cc1 [Tetracaine, tetracaine]
inhibition at 40 µM [1, 5]: 94.1%
IC50 [2]: 10.8 µM
inhibition at 40 µM [2, 5]: 78.3%
inhibition at 40 µM [3, 5]: 76.4%
IC50 [4]: 2.2 µM
inhibition at 40 µM [4, 5]: 100%

Nc1nc2c(ncn2[C@@H]2O[C@@H]3COP(=O)(O)O[C@H]3[C@H]2O)c(=O)[nH]1 [cGMP]
I/Imax of cGMP-activated current ([1]; Brod, 10 μM cGMP, +100 mV): 0.20
Hill coefficient n of cGMP activation ([1]; Brod, +100 mV): 2.0
Hill coefficient n of cGMP activation ([1]; Brod, −100 mV): 2.0
I/Imax of cGMP-activated current ([2]; Molf G204E, 1 μM cGMP, +100 mV): 0.15
Hill coefficient n of cGMP activation ([3]; Rolf G204E, +100 mV): 1.7
Hill coefficient n of cGMP activation ([3]; Rolf G204E, −100 mV): 1.7
Hill coefficient n of cGMP activation ([4]; Rolf G204W, averaged six patches, +100 mV): 1.7
Hill coefficient n of cGMP activation ([4]; Rolf G204W, averaged six patches, −100 mV): 1.7
Hill coefficient n of cGMP activation ([4]; Rolf G204W, single patch, +100 mV): 2.0
Hill coefficient n of cGMP activation ([4]; Rolf G204W, single patch, −100 mV): 2.0
EC50 ([4]; read-out: cGMP K1/2 (half-maximal activation), Rolf G204W, +100 mV, averaged data from six patches): 14 µM
EC50 ([4]; read-out: cGMP K1/2, Rolf G204W, single patch, +100 mV): 14 µM
EC50 ([4]; read-out: cGMP K1/2, Rolf G204W, single patch, −100 mV): 18 µM
